Assay results from EP4596574A1, “GLP-1/GCG/GIP TRIPLE-RECEPTOR AGONIST AND USE THEREOF” (Sunshine Lake Pharma Co., Ltd., priority 2022, dated 2024).
Starred links: 1 amine or outer side, 2 acyl side, 3 side chain; linkers in the order of their positions; H or OH if unused. Non-standard residues stand in square brackets, D forms with d. Residues, ends and D or L forms follow the SMILES beside them. Groups on a side chain read outwards from the residue. *: point of attachment. C18 diacid = O=C(O)CCCCCCCCCCCCCCCCC(=O)*; αMePhe(2-F) = C[C@](N)(Cc1ccccc1F)C(=O)O; γGlu = O=C(O)[C@H](CCC(=O)[*:2])N[*:1]; AEEA = NCCOCCOCC(=O)O; Aib = CC(C)(N)C(=O)O

Experiments:
Type in all cases: cell-based
GIPR = target: T1, GIPR (Homo sapiens, UniProt P48546); test: In vitro cell activity, cAMP production in HEK293 cells expressing GIPR; conditions: HEK293-GIPR cells, cAMP; read-out: GIPR (EC50)
T1 construct: expressed in transfected cells; host or cells: HEK293 (HEK293-GIPR)
T1 sequence (P48546 22-466): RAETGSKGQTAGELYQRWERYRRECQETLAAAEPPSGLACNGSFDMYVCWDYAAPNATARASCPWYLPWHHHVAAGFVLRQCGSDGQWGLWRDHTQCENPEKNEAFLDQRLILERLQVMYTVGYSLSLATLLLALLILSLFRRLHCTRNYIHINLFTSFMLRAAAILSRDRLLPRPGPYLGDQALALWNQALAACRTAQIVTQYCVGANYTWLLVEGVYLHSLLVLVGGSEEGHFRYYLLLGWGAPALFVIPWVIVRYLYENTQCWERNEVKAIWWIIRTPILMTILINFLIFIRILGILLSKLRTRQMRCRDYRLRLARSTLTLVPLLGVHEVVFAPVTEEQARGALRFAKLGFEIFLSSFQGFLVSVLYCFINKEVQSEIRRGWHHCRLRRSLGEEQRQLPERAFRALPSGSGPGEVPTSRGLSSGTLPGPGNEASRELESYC
Summary of the method: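 cAMP accumulation is quantified by homogeneous TR-FRET (cAMP-d2 plus anti-cAMP cryptate) in GIPR-expressing HEK293 cells seeded from a 4×10^5 cells/mL suspension and treated with compound. The signal ratio is plotted against concentration and fitted to a four-parameter curve to give EC50.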

GCGR = target: T2, GCGR (Homo sapiens, UniProt P47871); test: In vitro cell activity, cAMP production in HEK293 cells expressing GCGR; conditions: HEK293-GCGR cells, cAMP; read-out: GCGR (EC50)
T2 construct: expressed in transfected cells; host or cells: HEK293 (HEK293-GCGR)
T2 sequence (P47871 26-477, species assumed): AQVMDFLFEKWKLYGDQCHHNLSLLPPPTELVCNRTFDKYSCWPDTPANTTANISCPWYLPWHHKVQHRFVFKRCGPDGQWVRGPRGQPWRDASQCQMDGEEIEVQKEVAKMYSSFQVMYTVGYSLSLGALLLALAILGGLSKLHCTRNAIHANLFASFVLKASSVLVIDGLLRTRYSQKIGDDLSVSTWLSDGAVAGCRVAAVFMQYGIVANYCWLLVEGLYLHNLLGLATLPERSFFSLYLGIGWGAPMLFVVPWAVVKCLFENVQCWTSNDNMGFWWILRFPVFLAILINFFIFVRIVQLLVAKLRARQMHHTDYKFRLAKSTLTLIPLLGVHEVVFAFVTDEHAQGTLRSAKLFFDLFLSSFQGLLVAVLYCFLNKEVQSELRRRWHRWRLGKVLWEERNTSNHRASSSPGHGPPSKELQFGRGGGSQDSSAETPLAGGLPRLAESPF
Summary of the method: (§1)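 Assay format: cells at 4×10^5 cells/mL, cAMP sensed by d2/cryptate FRET pair, dual-wavelength read at 665 and 620 nm. Potency expressed as EC50 from nonlinear fitting.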

GLP-1R = target: T3, GLP-1R (Homo sapiens, UniProt P43220); test: In vitro cell activity, cAMP production in HEK293 cells expressing GLP-1R; conditions: HEK293-GLP-1R cells, cAMP; read-out: GLP-1R (EC50)
T3 construct: expressed in transfected cells; host or cells: HEK293 (HEK293-GLP-1R)
T3 sequence (P43220 24-463, species assumed): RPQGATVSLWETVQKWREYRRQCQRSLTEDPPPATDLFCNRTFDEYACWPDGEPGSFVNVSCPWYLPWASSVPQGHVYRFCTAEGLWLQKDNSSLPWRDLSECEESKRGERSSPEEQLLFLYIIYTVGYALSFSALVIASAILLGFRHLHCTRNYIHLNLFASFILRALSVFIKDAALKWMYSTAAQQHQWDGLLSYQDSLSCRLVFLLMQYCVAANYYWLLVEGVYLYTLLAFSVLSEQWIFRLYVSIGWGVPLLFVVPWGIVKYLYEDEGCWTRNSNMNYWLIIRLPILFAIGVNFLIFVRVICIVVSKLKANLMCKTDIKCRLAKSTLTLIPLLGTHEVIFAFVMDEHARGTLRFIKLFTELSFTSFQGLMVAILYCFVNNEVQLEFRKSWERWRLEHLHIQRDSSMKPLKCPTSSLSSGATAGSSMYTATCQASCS
Summary of the method: as §1

Structure (SMILES) | EC50 (GIPR) [nM] | EC50 (GCGR) [nM] | EC50 (GLP-1R) [nM]
CC[C@H](C)[C@H](NC(=O)[C@H](CO)NC(=O)[C@H](Cc1ccc(O)cc1)NC(=O)[C@H](CC(=O)O)NC(=O)[C@H](CO)NC(=O)[C@@H](NC(=O)[C@](C)(Cc1ccccc1F)NC(=O)[C@@H](NC(=O)CNC(=O)[C@H](CCC(N)=O)NC(=O)C(C)(C)NC(=O)[C@@H](N)Cc1ccc(O)cc1)[C@@H](C)O)[C@@H](C)O)C(=O)N[C@@H](CC(C)C)C(=O)N[C@@H](CCCCNC(=O)COCCOCCNC(=O)CC[C@H](NC(=O)CCCCCCCCCCCCCCCCC(=O)O)C(=O)O)C(=O)N[C@@H](CC(=O)O)C(=O)N[C@@H](CCCNC(=N)N)C(=O)N[C@@H](CCCNC(=N)N)C(=O)N[C@@H](C)C(=O)N[C@@H](CCC(N)=O)C(=O)N[C@@H](CCC(N)=O)C(=O)N[C@@H](C)C(=O)N[C@@H](Cc1ccccc1)C(=O)N[C@H](C(=O)N[C@@H](CCC(=O)O)C(=O)N[C@@H](Cc1ccc(O)cc1)C(=O)N[C@@H](CC(C)C)C(=O)N[C@@H](CC(C)C)C(=O)N[C@@H](CCC(=O)O)C(=O)NCC(=O)NCC(=O)N1CCC[C@H]1C(=O)N[C@@H](CO)C(=O)N[C@@H](CO)C(=O)NCC(=O)N[C@@H](C)C(=O)N1CCC[C@H]1C(=O)N1CCC[C@H]1C(=O)N1CCC[C@H]1C(=O)N[C@@H](CO)C(=O)O)C(C)C [HEC-PT149] (H-Y[Aib]QGT[αMePhe(2-F)]TSDYSILK([AEEA-γGlu-C18 diacid])DRRAQQAFVEYLLEGGPSSGAPPPS-OH) | 0.264 | 0.138 | 0.0868
CC[C@H](C)[C@H](NC(=O)[C@H](Cc1ccccc1)NC(=O)[C@H](C)NC(=O)[C@H](CCCNC(=N)N)NC(=O)[C@H](CCC(N)=O)NC(=O)[C@H](C)NC(=O)[C@H](CCCCNC(=O)COCCOCCNC(=O)CC[C@H](NC(=O)CCCCCCCCCCCCCCCCCCC(=O)O)C(=O)O)NC(=O)[C@H](CCC(=O)O)NC(=O)[C@H](CC(=O)O)NC(=O)[C@H](CC(C)C)NC(=O)[C@H](CC(C)C)NC(=O)[C@@H](NC(=O)[C@H](CO)NC(=O)[C@H](Cc1ccc(O)cc1)NC(=O)[C@H](CC(=O)O)NC(=O)[C@H](CO)NC(=O)[C@@H](NC(=O)[C@](C)(Cc1ccccc1F)NC(=O)[C@@H](NC(=O)CNC(=O)[C@H](Cc1c[nH]cn1)NC(=O)C(C)(C)NC(=O)[C@@H](N)Cc1ccc(O)cc1)[C@@H](C)O)[C@@H](C)O)[C@@H](C)CC)C(=O)N[C@@H](CCC(=O)O)C(=O)N[C@@H](Cc1ccc(O)cc1)C(=O)N[C@@H](CC(C)C)C(=O)N[C@@H](CC(C)C)C(=O)N[C@@H](C)C(=O)NCC(=O)NCC(=O)N1CCC[C@H]1C(=O)N[C@@H](CO)C(=O)N[C@@H](CO)C(=O)NCC(=O)N[C@@H](C)C(=O)N1CCC[C@H]1C(=O)N1CCC[C@H]1C(=O)N1CCC[C@H]1C(=O)N[C@@H](CO)C(=O)O [HEC-PT83] | 0.158 | 0.311 | 0.256
CC[C@H](C)[C@H](NC(=O)[C@H](Cc1ccccc1)NC(=O)[C@H](C)NC(=O)[C@H](CCC(N)=O)NC(=O)[C@H](CCC(N)=O)NC(=O)[C@H](C)NC(=O)[C@H](CCCCNC(=O)COCCOCCNC(=O)CC[C@H](NC(=O)CCCCCCCCCCCCCCCCCCC(=O)O)C(=O)O)NC(=O)[C@H](CCC(=O)O)NC(=O)[C@H](CC(=O)O)NC(=O)[C@H](CC(C)C)NC(=O)[C@H](CC(C)C)NC(=O)[C@@H](NC(=O)[C@H](CO)NC(=O)[C@H](Cc1ccc(O)cc1)NC(=O)[C@H](CC(=O)O)NC(=O)[C@H](CO)NC(=O)[C@@H](NC(=O)[C@](C)(Cc1ccccc1F)NC(=O)[C@@H](NC(=O)CNC(=O)[C@H](Cc1c[nH]cn1)NC(=O)C(C)(C)NC(=O)[C@@H](N)Cc1ccc(O)cc1)[C@@H](C)O)[C@@H](C)O)[C@@H](C)CC)C(=O)N[C@@H](CCC(=O)O)C(=O)N[C@@H](Cc1ccc(O)cc1)C(=O)N[C@@H](CC(C)C)C(=O)N[C@@H](CC(C)C)C(=O)N[C@@H](C)C(=O)NCC(=O)NCC(=O)N1CCC[C@H]1C(=O)N[C@@H](CO)C(=O)N[C@@H](CO)C(=O)NCC(=O)N[C@@H](C)C(=O)N1CCC[C@H]1C(=O)N1CCC[C@H]1C(=O)N1CCC[C@H]1C(=O)N[C@@H](CO)C(=O)O [HEC-PT81] | 0.132 | 0.382 | 0.409
CC[C@H](C)[C@H](NC(=O)[C@H](CO)NC(=O)[C@H](Cc1ccc(O)cc1)NC(=O)[C@H](CC(=O)O)NC(=O)[C@H](CO)NC(=O)[C@@H](NC(=O)[C@](C)(Cc1ccccc1F)NC(=O)[C@@H](NC(=O)CNC(=O)[C@H](CCC(N)=O)NC(=O)C(C)(C)NC(=O)[C@@H](N)Cc1ccc(O)cc1)[C@@H](C)O)[C@@H](C)O)C(=O)N[C@@H](CC(C)C)C(=O)N[C@@H](CC(C)C)C(=O)N[C@@H](CC(=O)O)C(=O)N[C@@H](CCC(=O)O)C(=O)N[C@@H](CCCCNC(=O)COCCOCCNC(=O)CC[C@H](NC(=O)CCCCCCCCCCCCCCCCC(=O)O)C(=O)O)C(=O)N[C@@H](CCCNC(=N)N)C(=O)N[C@@H](CCC(N)=O)C(=O)NC(C)(C)C(=O)N[C@@H](CCC(=O)O)C(=O)N[C@@H](Cc1ccccc1)C(=O)N[C@H](C(=O)N[C@@H](CCC(=O)O)C(=O)N[C@@H](Cc1c[nH]c2ccccc12)C(=O)N[C@@H](CC(C)C)C(=O)N[C@@H](CC(C)C)C(=O)N[C@@H](C)C(=O)NCC(=O)NCC(=O)N1CCC[C@H]1C(=O)N[C@@H](CO)C(=O)N[C@@H](CO)C(=O)NCC(=O)N[C@@H](C)C(=O)N1CCC[C@H]1C(=O)N1CCC[C@H]1C(=O)N1CCC[C@H]1C(=O)N[C@@H](CO)C(N)=O)[C@@H](C)CC [HEC-PT110] | 0.045 | 1.33 | 0.116
CC[C@H](C)[C@H](NC(=O)[C@H](Cc1ccccc1)NC(=O)[C@H](C)NC(=O)[C@H](CCC(N)=O)NC(=O)[C@H](CCC(N)=O)NC(=O)[C@H](CCCNC(=N)N)NC(=O)[C@@H](NC(=O)[C@H](CCCNC(=N)N)NC(=O)[C@H](CC(=O)O)NC(=O)[C@H](CCCCNC(=O)COCCOCCNC(=O)CC[C@H](NC(=O)CCCCCCCCCCCCCCCCC(=O)O)C(=O)O)NC(=O)[C@H](CC(C)C)NC(=O)[C@@H](NC(=O)[C@H](CO)NC(=O)[C@H](Cc1ccc(O)cc1)NC(=O)[C@H](CC(=O)O)NC(=O)[C@H](CO)NC(=O)[C@@H](NC(=O)[C@](C)(Cc1ccccc1F)NC(=O)[C@@H](NC(=O)CNC(=O)[C@H](CCC(N)=O)NC(=O)C(C)(C)NC(=O)[C@@H](N)Cc1ccc(O)cc1)[C@@H](C)O)[C@@H](C)O)[C@@H](C)CC)[C@@H](C)CC)C(=O)N[C@@H](CCC(=O)O)C(=O)N[C@@H](Cc1ccc(O)cc1)C(=O)N[C@@H](CC(C)C)C(=O)N[C@@H](CC(C)C)C(=O)N[C@@H](C)C(=O)NCC(=O)NCC(=O)N1CCC[C@H]1C(=O)N[C@@H](CO)C(=O)N[C@@H](CO)C(=O)NCC(=O)N[C@@H](C)C(=O)N1CCC[C@H]1C(=O)N1CCC[C@H]1C(=O)N1CCC[C@H]1C(=O)N[C@@H](CO)C(=O)O [HEC-PT147] (H-Y[Aib]QGT[αMePhe(2-F)]TSDYSILK([AEEA-γGlu-C18 diacid])DRIRQQAFIEYLLAGGPSSGAPPPS-OH) | 0.0861 | 0.17 | 0.174
CC[C@H](C)[C@H](NC(=O)[C@H](CC(C)C)NC(=O)[C@H](Cc1c[nH]c2ccccc12)NC(=O)[C@H](CCC(N)=O)NC(=O)[C@@H](NC(=O)[C@H](Cc1ccccc1)NC(=O)[C@H](C)NC(=O)[C@H](CCC(N)=O)NC(=O)[C@H](CCC(N)=O)NC(=O)[C@H](C)NC(=O)[C@H](CCCCNC(=O)COCCOCCNC(=O)CC[C@H](NC(=O)CCCCCCCCCCCCCCCCCCC(=O)O)C(=O)O)NC(=O)[C@H](CCC(=O)O)NC(=O)[C@H](CC(=O)O)NC(=O)[C@H](CC(C)C)NC(=O)[C@H](CC(C)C)NC(=O)[C@@H](NC(=O)[C@H](CO)NC(=O)[C@H](Cc1ccc(O)cc1)NC(=O)[C@H](CC(=O)O)NC(=O)[C@H](CO)NC(=O)[C@@H](NC(=O)[C@](C)(Cc1ccccc1F)NC(=O)[C@@H](NC(=O)CNC(=O)[C@H](CCC(N)=O)NC(=O)C(C)(C)NC(=O)[C@@H](N)Cc1ccc(O)cc1)[C@@H](C)O)[C@@H](C)O)[C@@H](C)CC)C(C)C)C(=O)N[C@@H](C)C(=O)NCC(=O)NCC(=O)N1CCC[C@H]1C(=O)N[C@@H](CO)C(=O)N[C@@H](CO)C(=O)NCC(=O)N[C@@H](C)C(=O)N1CCC[C@H]1C(=O)N1CCC[C@H]1C(=O)N1CCC[C@H]1C(=O)N[C@@H](CO)C(=O)O [HEC-PT92] | 0.0779 | 1.85 | 0.104
